Our source for the inhibition and IC50 values is patent US20250296938A1, “Compounds that Interact with the Ras Superfamily for the Treatment of Cancers, Inflammatory Diseases, Rasopathies, and Fibrotic Disease” (SHY Therapeutics, LLC, priority 2018, published 2025).

This experiment deals with MIA PaCa-2 pancreatic cancer cell line. As to the kind of experiment: Cell proliferation assay (DAPI). The experiment is classed as cell-based. The conditions noted are these: Homo sapiens; for inhibition at 10 µM: read-out: % Inhibition of cell proliferation, MIA PaCa-2 % inh. The protocol: Cell lines: Human NSCLC cells NCI-H1975 and NCI-H1299, and tumor-derived pancreatic cancer cell lines Panc-1, MIA-PACA2, and BxPC3, were all purchased from American Type Culture Collection and grown in complete RPMI medium (BxPC3, NCI-H1975 and NCI-H1299) or DMEM-High Glucose (Panc1 and MIA-PaCa-2), supplemented with penicillin (100 U/mL), streptomycin (100 μg/mL), and 10% heat-inactivated FBS at 37° C. in a humidified incubator with 5% CO2.
Method: Cells were plated at 2000 to 5000 cells/well density in 96-wells plate and cultured ON. Small molecules to be tested were added to the cells in the final concentration of 10 µM in the presence of 0.3% DMSO and 10% FBS, and incubated for 2-4 days at 37° C. in a humidified incubator with 5% CO2. For IC50 value determination, serial dilutions of compounds were added to cells under the same conditions.
Assay: At the end of the incubation period, cell cultures were fixed with a 50-50 mixture (v/v) acetone-methanol for 10 minutes at −20° C., followed by rehydration in PBS for 10 minutes at room temperature. DNA total content was determined by staining cells with DAPI (1 ug/ml) in PBS for 10 minutes at room temperature, followed by 3 washes with PBS. After staining, DAPI fluorescence was recorded (358 nm excitation/461 nm emission) with the 96-well plate reader Molecular Devices Spectramax M3; degree of small molecule-dependent proliferation inhibition was calculated from raw data.

Molecules are shown by their SMILES. Read-outs that look alike come from different tables or passages of the source. Bounds are passed on as bounds.

In the case of `O=C(NC1CCC1)c1nc(-c2ccccn2)nc(O)c1O` [drawing 603], the inhibition at 10 µM (2-4 days, MIA PaCa-2) came to 0%. With `COC1CCN(C(=O)c2sc3nc(-c4nccn4C)nc(N[C@H]4C[C@@H](OC)C4)c3c2-c2ccccc2)C1` (some centres unmarked) [drawing 658], where the note is “MIA PaCa-2 (Table 5A)”, the inhibition at 10 µM lay in the range of 26 to 50% and the IC50 was > 1000 nM. For `COCCNC(=O)c1sc2nc(-c3nccn3C)nc(N[C@H]3C[C@@H](OC)C3)c2c1-c1ccccc1` [drawing 656], under “MIA PaCa-2 (Table 5A)”, the inhibition at 10 µM was 26 to 50% and the concentration for half-maximal inhibition (IC50) was > 1000 nM.

Consider `COCCn1ccnc1-c1nc(O)c2scc(-c3ccccn3)c2n1` [drawing 532], for which the inhibition at 10 µM (2-4 days, MIA PaCa-2) was in the range of 76 to 100%. Consider `COc1nscc1-c1sc2nc(-c3nccn3C)nc(N3CCC(OC)C3)c2c1-c1ccccc1` (centres unmarked) [drawing 581], for which the inhibition at 10 µM (2-4 days, MIA PaCa-2) is 76 to 100%. In the case of `COC1CCC(Nc2nc(-c3nccn3C)nc3sc(-c4cccc(O)c4F)c(-c4ccccc4)c23)C1` (centres unmarked) [drawing 620], where the note is “MIA PaCa-2 (Table 5A)”, the inhibition at 10 µM is 76 to 100% and the concentration for half-maximal inhibition (IC50) was > 1000 nM. For the molecule `CO[C@H]1CC[C@@H](Nc2nc(-c3nccn3C)nc(C(=O)N3CCc4c(O)cccc4C3)c2C)C1` [drawing 636], where the note is “MIA PaCa-2 (Table 5A)”, the inhibition at 10 µM fell in the range of 1 to 25% and the IC50 is > 1000 nM. With `CO[C@H]1C[C@@H](Nc2nc(-c3nccn3C)nc3sc(-c4ccn(C)n4)c(-c4ccccc4)c23)C1` [drawing 640], for the setting “MIA PaCa-2 (Table 5A)”, the inhibition at 10 µM was 76 to 100% and the IC50 was > 1000 nM. Turning to `Cn1ccnc1-c1nc(O)c(O)c(C(=O)N2CCCCC2)n1` [drawing 608], the inhibition at 10 µM (2-4 days, MIA PaCa-2) lay in the range of 1 to 25%. `COC1CCN(c2nc(-c3nccn3C)nc3sc(-c4ccn(C)n4)c(-c4ccccc4)c23)CC1` [drawing 552]: where the note is “MIA PaCa-2”, the IC50 is > 1000 nM. For the same molecule, where the note is “2-4 days, MIA PaCa-2”, the inhibition at 10 µM was 76 to 100%.

On to `COc1c(O)nc(-c2ccccn2)nc1Oc1ccc(C(=O)N(C)C)cc1` [drawing 614], for which the inhibition at 10 µM (MIA PaCa-2 (Table 5A)) lay in the range of 1 to 25%.

Take `COc1c(O)nc(-c2ccccn2)nc1Oc1cccnc1` [drawing 589]: under “2-4 days, MIA PaCa-2”, the inhibition at 10 µM was 0%. Still for that read-out and setting: to `COc1ccc(Oc2nc(-c3ccccn3)nc(O)c2OC)cc1` [drawing 591] belongs 26 to 50%. `CO[C@H]1CC[C@@H](Nc2nc(-c3nccn3C)nc3sc(C(=O)N4CCCC4)c(-c4ccccc4)c23)C1` [drawing 661]: under “MIA PaCa-2 (Table 5A)”, the inhibition at 10 µM was in the range of 76 to 100% and the IC50 was > 1000 nM. Turning to `COc1cccc(Cn2ccnc2-c2nc(O)c3scc(-c4ccccn4)c3n2)c1` [drawing 535], the inhibition at 10 µM (2-4 days, MIA PaCa-2) was in the range of 76 to 100%. Turning to `CC(C)COc1ccc(-c2csc3c(O)nc(-c4nccn4Cc4ccccn4)nc23)cn1` [drawing 634], where the note is “MIA PaCa-2 (Table 5A)”, the inhibition at 10 µM was in the range of 76 to 100% and the half-inhibitory concentration (IC50) fell in the range of 500 to 749 nM. For `COC1CCC(Nc2nc(-c3nccn3C)nc3sc(-c4cccc5[nH]ncc45)c(-c4ccccc4)c23)C1` (centres unmarked) [drawing 623] the same measures were 76 to 100% and 750 to 1000 nM. Regarding `Oc1nc(-c2ncc3n2CCCC3)nc2c(-c3ccccn3)csc12` [drawing 530], the inhibition at 10 µM (2-4 days, MIA PaCa-2) lay within 76 to 100%.

In the case of `CO[C@H]1CC[C@@H](Nc2nc(-c3nccn3C)nc3sc(-c4ccn(C(C)C)n4)c(C)c23)C1` [drawing 654], for the setting “MIA PaCa-2 (Table 5A)”, the inhibition at 10 µM lay within 76 to 100% and the half-inhibitory concentration (IC50) is 500 to 749 nM. Regarding `O=C(NC1CCCC1)c1nc(-c2ccccn2)nc(O)c1O` [drawing 599], the inhibition at 10 µM (2-4 days, MIA PaCa-2) was in the range of 26 to 50%.

For `Oc1nc(-c2cn(-c3ccccc3)cn2)nc2c(-c3ccccn3)csc12` [drawing 540], under “2-4 days, MIA PaCa-2”, the inhibition at 10 µM lay within 76 to 100%.

In the case of `COc1cccc(-c2sc3nc(-c4nccn4C)nc(NC4CCC(OC)C4)c3c2-c2ccccc2)c1F` (centres unmarked) [drawing 618], where the note is “MIA PaCa-2 (Table 5A)”, the inhibition at 10 µM was 76 to 100% and the IC50 lay in the range of 750 to 1000 nM. As for `Cc1c(-c2ccn(C)n2)sc2nc(-c3nccn3C)nc(NCCOC(=O)N(C)C)c12` [drawing 653], for the setting “MIA PaCa-2 (Table 5A)”, the inhibition at 10 µM is 26 to 50% and the IC50 was > 1000 nM. As for `CO[C@H]1C[C@@H](Nc2nc(-c3nccn3C)nc3sc(C(=O)NC(C)C)c(-c4ccccc4)c23)C1` [drawing 655], under “MIA PaCa-2 (Table 5A)”, the inhibition at 10 µM was 51 to 75% and the half-inhibitory concentration (IC50) was > 1000 nM. As to `CC(C)CNC(=O)c1nc(-c2ccccn2)nc(O)c1O` [drawing 601], the inhibition at 10 µM (2-4 days, MIA PaCa-2) was found to be 0%.
